Experimental data: patent US20190381014A1, “ISOQUINOLINONE COMPOUNDS AND USE THEREOF IN PREPARATION OF ANTIVIRAL DRUGS” (Ginkgo Pharma Co., Ltd., priority 2016, published 2019)

What was measured:
[1] = system: HBsAg; test: HBsAg inhibition in HepG2.2.15 culture supernatant (ELISA); assay type: cell-based, HBV; conditions: Hepatitis B virus, HepG2.2.15, 192 h, read-out: Activity in HBsAg inhibition, EC50
Experimental: Test method: HepG2.2.15 cell line was seeded into 96-well plates at 1.5×10^4 cells/well. On the following day, the cells were treated with a three-fold serial dilution series of the compounds at eight concentration points, and 2 duplicate wells were determined in parallel. The final DMSO concentration in the culture solution was 0.5%. On the fifth day, the culture solution was replaced with fresh solution containing the compounds. On the eighth day, the culture supernatant was collected and the HBsAg in the culture supernatant was detected by ELISA. The percent inhibition was calculated with respect to the blank control.

[2] = Rat PK study (single IV and PO dose, plasma LC-MS/MS); assay type: in vivo, S-D rats; conditions: for F / AUC(0-t) / clearance / half-life / Vd / Cmax / Tmax: S-D rats; for F: PO 10 mg/kg vs IV 2 mg/kg; for AUC(0-t) / clearance / half-life / Vd / Cmax / Tmax: Sprague-Dawley (S-D), rat, plasma; for Vd: read-out: Vdss; for PK properties (overall judgement): combining PK data of IV and PO
Experimental: Preparation of intravenous injection formulation: accurately weighing 2-3 mg of a sample, adding appropriate amount of N,N-dimethylacetamide (DMA), vortex oscillating to completely dissolve the solid matter; adding an appropriate volume of 30% Solutol HS-15 aqueous solution, vortex oscillating and then adding saline, so that DMA: 30% Solutol HS-15:saline=20:20:60 (v/v/v), vortex oscillating the liquid to mix the liquid evenly, and filtering to obtain a pharmaceutical preparation of a concentration of 0.4 mg·mL^−1.
Preparation of oral formulation: accurately weighing 10 mg of a sample, adding an appropriate volume of 0.5% CMC-Na aqueous solution, vortex oscillating and ultrasounding to mix the liquid evenly to obtain a pharmaceutical preparation of a concentration of 1 mg·mL^−1.
The formulations were freshly prepared on the day of administration, and samples were reserved and taken for the determination of the actual concentration.
S-D rats of Group A were given a single intravenous injection (IV) of 2 mg·kg^−1, respectively; S-D rats of Group B were given a single gavage administration (PO) of 10 mg·kg^−1, respectively. Approximately 0.15 mL of blood sample will was collected via jugular vein into EDTA-K2 tubes at the designated time points of pre-dose, and 5 min (IV only), 15 min, 30 min, 1 h, 2 h, 4 h, 8 h, 12 h and 24 h post dose. All of the whole blood samples were centrifuged for 10 min (at 5500 rpm) to obtain plasma samples, which were stored at a refrigerator below −30˜−10° C. Concentrations of compounds in the plasma samples were analyzed using a LC-MS/MS method. The pharmacokinetic parameters were calculated using non-compartment model in Pharsight Phoenix 7.0 software. See Tables 2a and 2b for the results.

SMILES | EC50 [1] | F [2] | AUC(0-t) ([2]; IV 2 mg/kg) | clearance ([2]; IV 2 mg/kg) | half-life ([2]; IV 2 mg/kg) | Vd ([2]; IV 2 mg/kg) | AUC(0-t) ([2]; PO 10 mg/kg) | Cmax ([2]; PO 10 mg/kg) | Tmax ([2]; PO 10 mg/kg) | half-life ([2]; PO 10 mg/kg) | PK properties (overall judgement) [2]
COCC1(COc2cc3c(cc2OC)-c2cc(=O)c(C(=O)O)cn2[C@H](C(C)C)C3)CC1 [Compound I-6, (S)-6-isopropyl-10-methoxy-9-((1-(methoxymethyl)cyclopropyl)methoxy)-2-oxo-6,7-dihydro-2H-pyrido[2,1-α]isoquinoline-3-carboxylic acid] | 3.15 nM | 45.8% | 1020 ng·h/mL | 33.6 mL/min/kg | 42.6 min | 1.74 L/kg | 2310 ng·h/mL | 1490 ng/mL | 34.8 min | 114 min | good PK properties
COCC1(COc2cc3c(cc2OC)-c2cc(=O)c(C(=O)O)cn2[C@H](C(C)C)C3)COC1 [Compound I-7, (S)-6-isopropyl-10-methoxy-9-((3-(methoxymethyl)oxetan-3-yl)methoxy)-2-oxo-6,7-dihydro-2H-pyrido[2,1-α]isoquinoline-3-carboxylic acid] | 3.82 nM | 8.1% | 1180 ng·h/mL | 28.8 mL/min/kg | 40.2 min | 1.39 L/kg | 470 ng·h/mL | 103 ng/mL | 60 min | 84 min | 
COc1cc2c(cc1OCC1CC(OC)C1)C[C@@H](C(C)C)n1cc(C(=O)O)c(=O)cc1-2 (stereo partly drawn) [Compound I-8, (S)-6-isopropyl-10-methoxy-9-((3-methoxycyclobutyl)methoxy)-2-oxo-6,7-dihydro-2H-pyrido[2,1-α]isoquinoline-3-carboxylic acid] | 1.54 nM | 27.1% | 2150 ng·h/mL | 15.7 mL/min/kg | 53.4 min | 1.05 L/kg | 3030 ng·h/mL | 739 ng/mL | 55.2 min | 78 min | good PK properties
COc1cc2c(cc1OCCCC(C)=O)C[C@@H](C(C)C)n1cc(C(=O)O)c(=O)cc1-2 [Compound I-9, (S)-6-isopropyl-10-methoxy-2-oxo-9-((4-oxopentyl)oxy)-6,7-dihydro-2H-pyrido[2,1-α]isoquinoline-3-carboxylic acid] | 3.26 nM | 4.3% | 504 ng·h/mL | 65.9 mL/min/kg | 17.4 min | 0.942 L/kg | 105 ng·h/mL | 79.9 ng/mL | 19.8 min | 108 min | 
COc1cc2c(cc1OC1CCCC1)C[C@@H](C(C)C)n1cc(C(=O)O)c(=O)cc1-2 [Compound I-10, (S)-9-(cyclopentyloxy)-6-isopropyl-10-methoxy-2-oxo-6,7-dihydro-2H-pyrido[2,1-α]isoquinoline-3-carboxylic acid] | 3.01 nM | 11.7% | 1490 ng·h/mL | 22.7 mL/min/kg | 52.8 min | 1.41 L/kg | 869 ng·h/mL | 265 ng/mL | 60 min | 78 min | 
COc1cc2c(cc1C#CC1CC1)C[C@@H](C(C)C)n1cc(C(=O)O)c(=O)cc1-2 [Compound I-11, (S)-9-(cyclopropylethynyl)-6-isopropyl-10-methoxy-2-oxo-6,7-dihydro-2H-pyrido[2,1-α] isoquinoline-3-carboxylic acid] | 2.57 nM | 11.5% | 946 ng·h/mL | 35.9 mL/min/kg | 34.8 min | 1.37 L/kg | 461 ng·h/mL | 119 ng/mL | 108 min | 192 min | 
